Test results published in paper PMC11576293, “New series of 4,6-diaryl pyrimidines: facile synthesis and antiproliferative activity as dual EGFR/VEGFR-2 inhibitors” (Frontiers in Chemistry, 2024).

Tests used:
Experiment in all cases: NCI-60 single-dose screen
Format in all cases: cell-based
MCF7 = conditions: Homo sapiens, single dose 10 µM, '-' = no inhibition, read-out: % Growth Inhibition
Protocol: (§1) The National Cancer Institute’s Developmental Therapeutic Program (www.dtp.nci.nih.gov) has tested compounds 9–29 (except compounds 21 and 22) against 60 cancer cell lines from nine types (leukemia, lung, colon, CNS, melanoma, ovarian, renal, prostate, and breast cancer) at a single dose (10 μM) ([El-Sherief et al., 2018]). […] The most sensitive cells included leukemia (SR, K-562, and MOLT-4), lung (NCI-H522, […], and EKVX), breast (MCF-7 and T-47D), colon (HCT-15 and HT-29), and ovarian (NCI/ADR-RES).
(§2) The National Cancer Institute’s Developmental Therapeutic Program (www.dtp.nci.nih.gov) evaluated compounds 9–29 (excluding 21 and 22) against 60 cancer cell lines from nine categories (leukemia, lung, colon, CNS, melanoma, ovarian, renal, prostate, and breast cancer) at a single dose (10 μM) ([El-Sherief et al., 2018]). See Supplementary Material A1 for more details.

OVCAR-5 = conditions: Homo sapiens, single dose 10 µM, '-' = no inhibition, read-out: % Growth Inhibition
Protocol: as §1, §2

SK-OV-3 = conditions: Homo sapiens, single dose 10 µM, '-' = no inhibition, read-out: % Growth Inhibition
Protocol: as §1, §2

A549/ATCC = conditions: Homo sapiens, single dose 10 µM, '-' = no inhibition, read-out: % Growth Inhibition
Protocol: as §1, §2

CAKI-1 = conditions: Homo sapiens, single dose 10 µM, '-' = no inhibition, read-out: % Growth Inhibition
Protocol: as §1, §2

MALME-3M = conditions: Homo sapiens, single dose 10 µM, '-' = no inhibition, read-out: % Growth Inhibition
Protocol: as §1, §2

SN12C = conditions: Homo sapiens, single dose 10 µM, '-' = no inhibition, read-out: % Growth Inhibition
Protocol: as §1, §2

TK-10 = conditions: Homo sapiens, single dose 10 µM, '-' = no inhibition, read-out: % Growth Inhibition
Protocol: as §1, §2

786-0 = conditions: Homo sapiens, single dose 10 µM, '-' = no inhibition, read-out: % Growth Inhibition
Protocol: as §1, §2

T-47D = conditions: Homo sapiens, T47D, single dose 10 µM, '-' = no inhibition, read-out: % Growth Inhibition
Protocol: as §1, §2

SF-268 = conditions: Homo sapiens, single dose 10 µM, '-' = no inhibition, read-out: % Growth Inhibition
Protocol: as §1, §2

U251 = conditions: Homo sapiens, U-251, single dose 10 µM, '-' = no inhibition, read-out: % Growth Inhibition
Protocol: as §1, §2

HCT-116 = conditions: Homo sapiens, single dose 10 µM, '-' = no inhibition, read-out: % Growth Inhibition
Protocol: as §1, §2

MDA-MB-468 = conditions: Homo sapiens, single dose 10 µM, '-' = no inhibition, read-out: % Growth Inhibition
Protocol: as §1, §2

A498 = conditions: Homo sapiens, single dose 10 µM, '-' = no inhibition, read-out: % Growth Inhibition
Protocol: as §1, §2

NCI-H460 = conditions: Homo sapiens, single dose 10 µM, '-' = no inhibition, read-out: % Growth Inhibition
Protocol: as §1, §2

SF-539 = conditions: Homo sapiens, single dose 10 µM, '-' = no inhibition, read-out: % Growth Inhibition
Protocol: as §1, §2

OVCAR-3 = conditions: Homo sapiens, single dose 10 µM, '-' = no inhibition, read-out: % Growth Inhibition
Protocol: as §1, §2

PC-3 = conditions: Homo sapiens, single dose 10 µM, '-' = no inhibition, read-out: % Growth Inhibition
Protocol: as §1, §2

KM12 = conditions: Homo sapiens, single dose 10 µM, '-' = no inhibition, read-out: % Growth Inhibition
Protocol: as §1, §2

EKVX = conditions: Homo sapiens, single dose 10 µM, '-' = no inhibition, read-out: % Growth Inhibition
Protocol: as §1, §2

MOLT-4 = conditions: Homo sapiens, single dose 10 µM, '-' = no inhibition, read-out: % Growth Inhibition
Protocol: as §1, §2

HT29 = conditions: Homo sapiens, HT-29, single dose 10 µM, '-' = no inhibition, read-out: % Growth Inhibition
Protocol: as §1, §2

SW-620 = conditions: Homo sapiens, single dose 10 µM, '-' = no inhibition, read-out: % Growth Inhibition
Protocol: as §1, §2

CCRF-CEM = conditions: Homo sapiens, single dose 10 µM, '-' = no inhibition, read-out: % Growth Inhibition
Protocol: as §1, §2

UACC-62 = conditions: Homo sapiens, single dose 10 µM, '-' = no inhibition, read-out: % Growth Inhibition
Protocol: as §1, §2

SNB-75 = conditions: Homo sapiens, single dose 10 µM, '-' = no inhibition, read-out: % Growth Inhibition
Protocol: as §1, §2

RPMI-8226 = conditions: Homo sapiens, single dose 10 µM, '-' = no inhibition, read-out: % Growth Inhibition
Protocol: as §1, §2

SK-MEL-5 = conditions: Homo sapiens, single dose 10 µM, '-' = no inhibition, read-out: % Growth Inhibition
Protocol: as §1, §2

HCC-2998 = conditions: Homo sapiens, single dose 10 µM, '-' = no inhibition, read-out: % Growth Inhibition
Protocol: as §1, §2

HOP-62 = conditions: Homo sapiens, single dose 10 µM, '-' = no inhibition, read-out: % Growth Inhibition
Protocol: as §1, §2

HCT-15 = conditions: Homo sapiens, single dose 10 µM, '-' = no inhibition, read-out: % Growth Inhibition
Protocol: as §1, §2

SK-MEL-28 = conditions: Homo sapiens, single dose 10 µM, '-' = no inhibition, read-out: % Growth Inhibition
Protocol: as §1, §2

UO-31 = conditions: Homo sapiens, single dose 10 µM, '-' = no inhibition, read-out: % Growth Inhibition
Protocol: as §1, §2

IGROV1 = conditions: Homo sapiens, IGROV-1, single dose 10 µM, '-' = no inhibition, read-out: % Growth Inhibition
Protocol: as §1, §2

ACHN 1 = conditions: Homo sapiens, single dose 10 µM, '-' = no inhibition, read-out: % Growth Inhibition
Protocol: as §1, §2

HS 578T = conditions: Homo sapiens, single dose 10 µM, '-' = no inhibition, read-out: % Growth Inhibition
Protocol: as §1, §2

SNB-19 = conditions: Homo sapiens, single dose 10 µM, '-' = no inhibition, read-out: % Growth Inhibition
Protocol: as §1, §2

UACC-257 = conditions: Homo sapiens, single dose 10 µM, '-' = no inhibition, read-out: % Growth Inhibition
Protocol: as §1, §2

NCI-H522 = conditions: Homo sapiens, single dose 10 µM, '-' = no inhibition, read-out: % Growth Inhibition
Protocol: as §1, §2

MDA-MB-435 = conditions: Homo sapiens, single dose 10 µM, '-' = no inhibition, read-out: % Growth Inhibition
Protocol: as §1, §2

M14 = conditions: Homo sapiens, single dose 10 µM, '-' = no inhibition, read-out: % Growth Inhibition
Protocol: as §1, §2

HOP-92 = conditions: Homo sapiens, single dose 10 µM, '-' = no inhibition, read-out: % Growth Inhibition
Protocol: as §1, §2

SK-MEL-2 = conditions: Homo sapiens, single dose 10 µM, '-' = no inhibition, read-out: % Growth Inhibition
Protocol: as §1, §2

NCI/ADR-RES = conditions: Homo sapiens, single dose 10 µM, '-' = no inhibition, read-out: % Growth Inhibition
Protocol: as §1, §2

BT-549 = conditions: Homo sapiens, single dose 10 µM, '-' = no inhibition, read-out: % Growth Inhibition
Protocol: as §1, §2

SF-295 = conditions: Homo sapiens, single dose 10 µM, '-' = no inhibition, read-out: % Growth Inhibition
Protocol: as §1, §2

RXF 393 = conditions: Homo sapiens, single dose 10 µM, '-' = no inhibition, read-out: % Growth Inhibition
Protocol: as §1, §2

Structure (SMILES): COc1ccc(-c2cc(-c3ccc(Cl)cc3)nc(SC)n2)cc1 [Compound 9, 4-(4-Chlorophenyl)-6-(4-methoxyphenyl)-2-(methylthio)pyrimidine]
- inhibition at 10 µM (MCF7): 28.7%
- inhibition at 10 µM (OVCAR-5): < 0%
- inhibition at 10 µM (SK-OV-3): < 0%
- inhibition at 10 µM (A549/ATCC): 7.56%
- inhibition at 10 µM (CAKI-1): 28.8%
- inhibition at 10 µM (MALME-3M): 11.3%
- inhibition at 10 µM (SN12C): 11.2%
- inhibition at 10 µM (TK-10): < 0%
- inhibition at 10 µM (786-0): 1.88%
- inhibition at 10 µM (T-47D): 9.97%
- inhibition at 10 µM (SF-268): 4.44%
- inhibition at 10 µM (U251): 3.42%
- inhibition at 10 µM (HCT-116): 5.47%
- inhibition at 10 µM (MDA-MB-468): 26.2%
- inhibition at 10 µM (A498): < 0%
- inhibition at 10 µM (NCI-H460): 4.25%
- inhibition at 10 µM (SF-539): 6.28%
- inhibition at 10 µM (OVCAR-3): < 0%
- inhibition at 10 µM (PC-3): 6.22%
- inhibition at 10 µM (KM12): 5.71%
- inhibition at 10 µM (EKVX): 19.4%
- inhibition at 10 µM (MOLT-4): 11.7%
- inhibition at 10 µM (HT29): 15.6%
- inhibition at 10 µM (SW-620): 6.31%
- inhibition at 10 µM (CCRF-CEM): 0.1%
- inhibition at 10 µM (UACC-62): 26%
- inhibition at 10 µM (SNB-75): < 0%
- inhibition at 10 µM (RPMI-8226): 10.8%
- inhibition at 10 µM (SK-MEL-5): 4.98%
- inhibition at 10 µM (HCC-2998): < 0%
- inhibition at 10 µM (HOP-62): 9.16%
- inhibition at 10 µM (HCT-15): 15%
- inhibition at 10 µM (SK-MEL-28): < 0%
- inhibition at 10 µM (UO-31): 18.1%
- inhibition at 10 µM (IGROV1): 3.15%
- inhibition at 10 µM (ACHN 1): 4.08%
- inhibition at 10 µM (HS 578T): 7.95%
- inhibition at 10 µM (SNB-19): 4.85%
- inhibition at 10 µM (UACC-257): 5.09%
- inhibition at 10 µM (NCI-H522): 16%
- inhibition at 10 µM (MDA-MB-435): 1.45%
- inhibition at 10 µM (M14): 3.51%
- inhibition at 10 µM (HOP-92): 3.16%
- inhibition at 10 µM (SK-MEL-2): < 0%
- inhibition at 10 µM (NCI/ADR-RES): 9.84%
- inhibition at 10 µM (BT-549): < 0%
- inhibition at 10 µM (SF-295): 7.84%
- inhibition at 10 µM (RXF 393): 7.91%

Structure (SMILES): CCSc1nc(-c2ccc(Cl)cc2)cc(-c2ccc(OC)cc2)n1 [Compound 10, 4-(4-Chlorophenyl)-2-(ethylthio)-6-(4-methoxyphenyl)pyrimidine]
- inhibition at 10 µM (MCF7): 25.5%
- inhibition at 10 µM (OVCAR-5): < 0%
- inhibition at 10 µM (SK-OV-3): < 0%
- inhibition at 10 µM (A549/ATCC): 11.2%
- inhibition at 10 µM (CAKI-1): 13.3%
- inhibition at 10 µM (MALME-3M): < 0%
- inhibition at 10 µM (SN12C): 0.46%
- inhibition at 10 µM (TK-10): 0.94%
- inhibition at 10 µM (786-0): 3.07%
- inhibition at 10 µM (T-47D): 18.6%
- inhibition at 10 µM (SF-268): < 0%
- inhibition at 10 µM (U251): 4.88%
- inhibition at 10 µM (HCT-116): 4.3%
- inhibition at 10 µM (MDA-MB-468): < 0%
- inhibition at 10 µM (A498): 3.38%
- inhibition at 10 µM (NCI-H460): < 0%
- inhibition at 10 µM (SF-539): < 0%
- inhibition at 10 µM (OVCAR-3): < 0%
- inhibition at 10 µM (PC-3): < 0%
- inhibition at 10 µM (KM12): 1.5%
- inhibition at 10 µM (EKVX): 7.83%
- inhibition at 10 µM (MOLT-4): 2.95%
- inhibition at 10 µM (HT29): 9.13%
- inhibition at 10 µM (SW-620): < 0%
- inhibition at 10 µM (CCRF-CEM): < 0%
- inhibition at 10 µM (UACC-62): < 0%
- inhibition at 10 µM (SNB-75): 3%
- inhibition at 10 µM (RPMI-8226): 6.56%
- inhibition at 10 µM (SK-MEL-5): 3.36%
- inhibition at 10 µM (HCC-2998): < 0%
- inhibition at 10 µM (HOP-62): < 0%
- inhibition at 10 µM (HCT-15): 14.4%
- inhibition at 10 µM (SK-MEL-28): < 0%
- inhibition at 10 µM (UO-31): 10.5%
- inhibition at 10 µM (IGROV1): < 0%
- inhibition at 10 µM (ACHN 1): 2.57%
- inhibition at 10 µM (HS 578T): 2.58%
- inhibition at 10 µM (SNB-19): 0.21%
- inhibition at 10 µM (UACC-257): < 0%
- inhibition at 10 µM (NCI-H522): 8.82%
- inhibition at 10 µM (MDA-MB-435): 8.38%
- inhibition at 10 µM (M14): < 0%
- inhibition at 10 µM (HOP-92): < 0%
- inhibition at 10 µM (SK-MEL-2): 6.03%
- inhibition at 10 µM (NCI/ADR-RES): 1.42%
- inhibition at 10 µM (BT-549): < 0%
- inhibition at 10 µM (SF-295): 2.91%
- inhibition at 10 µM (RXF 393): < 0%
